Values quoted from earlier work, collected in patent US7601427B2, “Curable composition, cured film, antireflection film, polarizing plate and liquid crystal display” (Fujifilm Corporation, priority 2005, dated 2009).

Conditions: pKa of conjugate acid, aqueous solution, from Kagaku Binran

CN(C)CCO [b-17, N,N′-Dimethyl-2-aminoethanol]
pKa: 9.5
